In ChEMBL document CHEMBL3108752, “Iridal-type triterpenoids with neuroprotective activities from Iris tectorum” (2014):

System: PC-12
Test: Neuroprotective activity against serum-deprivation-induced damage in rat PC12 cells assessed as survival rate at 10 uM after 48 hrs by MTT assay relative to control
Format: functional
Conditions: PC-12, 48 h, read-out: Survival

| Compound | viability at 10 µM [%] |
| --- | --- |
| CC(C)=CCC/C(C)=C/[C@H]1C=C(CO)[C@@H]2CC[C@]3([C@H](CCCO)/C(=C(/C)C=O)CC[C@]3(C)O)[C@@H]2O1 | 63.8 |
| CC(C)=CCC/C(=C\[C@H]1C=C(CO)[C@@H]2CC[C@]3([C@H](CCCO)/C(=C(\C)C=O)CC[C@]3(C)O)[C@@H]2O1)CO | 50.9 |
| CC(C)=CCC/C(=C\[C@H]1C=C(CO)[C@@H]2CC[C@]3([C@H](CCCO)/C(=C(/C)C=O)CC[C@]3(C)O)[C@@H]2O1)CO | 54.1 |
